Measurements taken from patent US7902225B2, “Mycobacterial inhibitors” (Janssen Pharmaceutica NV, priority 2005, dated 2011).
Structures can show the parent of a compound that is named as a salt.

Tests used:
M. Smegmatis ATCC607 = assay: In-vitro anti-bacterial activity against strain M. smegmatis ATCC607 (growth inhibition, Alamar Blue fluorescence); assay type: cell-based; settings: 48 hours at 37° C.; for IC50: Mycolicibacterium smegmatis, read-out: M. smegmatis (pIC50) (converted)
Method: D.2. In-vitro Method for Testing Compounds for Anti-bacterial Activity Against Strain M. Smegmatis ATCC607. Flat-bottom, sterile 96well plastic microtiter plates were filled with 180 μl of sterile deionized water, supplemented with 0.25% BSA. Subsequently, stock solutions (7.8× final test concentration) of compounds were added in 45 μl volumes to a series of duplicate wells in column 2 so as to allow evaluation of their effects on bacterial growth. Serial five-fold dilutions (45 μl in 180 μl) were made directly in the microtiter plates from column 2 to 11 using a customised robot system (Zymark Corp., Hopkinton, Mass.). Pipette tips were changed after every 3 dilutions to minimize pipetting errors with high hydrophobic compounds. Untreated control samples with (column 1) and without (column 12) inoculum were included in each microtiter plate. Approximately 250 CFU per well of bacteria inoculum, in a volume of 100 μl in 2.8× Mueller-Hinton broth medium, was added to the rows […]. The same volume of broth medium without inoculum was added to column 12 in row A to H. The cultures were incubated at 37° C. for 48 hours in a humidified 5% CO2 atmosphere (incubator with open air valve and continuous ventilation). At the end of incubation, two days after inoculation, the bacterial growth was quantitated fluorometrically. Therefore Alamar Blue (10×) was added to all wells in a volume of 20 μl and plates were incubated for another 2 hours at […] The fluorescence was read in a computer-controlled fluorometer (Cytofluor, Biosearch) at an excitation wavelength of 530 nm and an emission wavelength of 590 nm (gain 30). The % growth inhibition achieved by the compounds was calculated according to standard methods. The pIC50 was defined as the 50% inhibitory concentration for bacterial growth.

[1] = test system: Mycobacterium tuberculosis (strain H37RV); assay: In-vitro testing of compounds against M. tuberculosis (growth inhibition, Resazurin fluorescence); assay type: cell-based; settings: bacterial growth inhibition, 7 days at 37° C.; for IC50: Mycobacterium tuberculosis, 168 h, read-out: M. tuberculosis (pIC50) (converted)

| Structure (SMILES) | IC50 (M. Smegmatis ATCC607) [nM] | melting point [°C] | other results |
| --- | --- | --- | --- |
| CN(C)CCOc1nc2c(C(O)(CCN(C)C)c3ccccc3)cc(Br)cc2cc1Cc1ccccc1 (stereo not drawn) [Compound 75] | 6310 |  | IC50 [1]: 5010 nM |
| CN(C)CCC(O)(c1cc(F)cc(F)c1)c1cccc2nc(N(C)C)c(-c3ccccc3)cc12 (stereo not drawn) (as salt: salt) [Compound 10] |  | 136 |  |
| CN(C)CCC(O)(c1ccccc1)c1cc(Br)cc2cc(Cc3ccccc3)c(N3CCCC3)nc12 (stereo not drawn) [Compound 80] |  |  | M. smegmatis (pIC50) (M. Smegmatis ATCC607): 6.1; M. tuberculosis (pIC50) [1]: 5.05 |
| CN(C)CCC(O)(c1ccccc1)c1cc(Br)cc2cc(Cc3ccccc3)c(N3CCN(Cc4ccccc4)CC3)nc12 (stereo not drawn) [Compound 79] |  |  | M. smegmatis (pIC50) (M. Smegmatis ATCC607): 6.2; M. tuberculosis (pIC50) [1]: 4.6 |
| CN(C)CCC(O)(c1cc(F)cc(F)c1)c1ccc2nc(-c3cccnc3)cc(-c3ccccc3)c2c1 (stereo not drawn) (as salt: salt) [Compound 8] |  | 151 |  |
| CN(C)CCC(O)(Cc1c(Cc2ccccc2)c(-c2cccnc2)nc2ccccc12)c1cc(F)cc(F)c1 (stereo not drawn) [Compound 9] | 6310 | 164 |  |
| COc1nc2c(C(O)(CCN(C)C)c3ccccc3)cc(-c3cccnc3)cc2cc1Cc1ccccc1 (stereo not drawn) [Compound 14] | 7940 | 180 |  |
| CN(C)CCC(O)(c1cccc2ccccc12)c1cc(Br)cc2cc(-c3ccccc3)c(=O)[nH]c12 (stereo not drawn) |  | 190 |  |
| CN(C)CCC(O)(c1ccccc1)c1cc(Br)cc2cc(Cc3ccccc3)c(OCCN3CCCCC3)nc12 (stereo not drawn) [Compound 11] | 3160 |  | IC50 [1]: 3160 nM |
| CN(C)CCC(O)(Cc1c(Cc2ccccc2)c(-c2ccco2)nc2ccccc12)c1cc(F)cc(F)c1 (stereo not drawn) [Compound 5] | 398 | 130 |  |
| CN(C)CCC(O)(c1ccccc1)c1cc(Br)cc2cc(Cc3ccccc3)c(N3CCOCC3)nc12 (stereo not drawn) [Compound 7] | 1580 | 70 |  |
| COc1nc2c(C(O)(CCN(C)C)c3cc(F)cc(F)c3)cc(-c3cccnc3)cc2cc1-c1ccccc1 (stereo not drawn) (as salt: salt) [Compound 13] |  | 156 |  |
| CN(C)CCC(O)(Cc1c(-c2ccccc2)c(-c2ccccc2)nc2ccccc12)c1cc(F)cc(F)c1 (stereo not drawn) [Compound 41] | 31600 |  |  |
| CN(C)CCC(O)(c1ccccc1)c1cc2nc(N3CCCC3)c(Cc3ccccc3)cc2cc1Br (stereo not drawn) [Compound 58] |  |  | M. smegmatis (pIC50) (M. Smegmatis ATCC607): 5.8 |
| CN(C)CCC(O)(c1ccccc1)c1cc(-c2cccnc2)cc2cc(-c3ccccc3)c(-c3cccnc3)nc12 (stereo not drawn) [Compound 76] | 1580 |  |  |
| COc1nc2c(C(O)(CCN(C)C)c3ccccc3)cc(Br)cc2cc1Cc1ccccc1 (stereo not drawn) [Compound 3] | 1260 | 66 |  |
| CN(C)CCC(O)(c1cccc2ccccc12)c1cc(Br)cc2cc(Cc3ccccc3)c(N(C)C)nc12 (stereo not drawn) [Compound 57] |  |  | M. smegmatis (pIC50) (M. Smegmatis ATCC607): 5.8 |
| CN(C)CCC(O)(c1ccccc1)c1cc2nc(N3CCN(Cc4ccccc4)CC3)c(Cc3ccccc3)cc2cc1Br (stereo not drawn) [Compound 55] | 1260 |  |  |
| CN(C)CCC(O)(c1cccc2ccccc12)c1cc(Br)cc2cc(Cc3ccccc3)c(N3CCCC3)nc12 (stereo not drawn) [Compound 52] | 1000 |  |  |
| CN(C)CCC(O)(c1ccccc1)c1cc(Br)cc2cc(Cc3ccccc3)c(N3CCN(c4ccccn4)CC3)nc12 (stereo not drawn) [Compound 85] |  |  | M. smegmatis (pIC50) (M. Smegmatis ATCC607): 5.7 |
| COc1nc2c(C(O)(CCN(C)C)c3cccs3)cc(C)cc2cc1Cc1ccccc1 (stereo not drawn) [Compound 16] | 1580 |  |  |
| COc1nc2c(C(O)(CCN(C)C)c3ccco3)cc(Br)cc2cc1-c1ccccc1 (stereo not drawn) [Compound 26] | 2000 |  |  |
| CN(C)CCC(O)(c1cc(F)cc(F)c1)c1cccc2nc(N(C)C)c(-c3ccccc3)cc12 (stereo not drawn) [Compound 10] | 2000 |  |  |
| CN(C)CCC(O)(c1cccc2ccccc12)c1cc(Br)cc2cc(Cc3ccccc3)c(N3CCN(c4n[nH]c5ccccc45)CC3)nc12 (stereo not drawn) [Compound 48] | 631 |  |  |
